Experimental data: patent US8349791B2, “Polypeptides that bind membrane proteins” (The Trustees of the University of Pennsylvania, priority 2006, dated 2013)
Peptide text beside a SMILES is read from it.

What was measured:
Format in all cases: cell-based
αVβ3 [1] = target: T1, αVβ3 (Homo sapiens, UniProt P06756); assay: Force spectroscopy (laser tweezers), platelets and osteopontin-coated beads
T1 construct: Platelets express a second integrin with a β3 subunit, αVβ3; endogenous in cells; host or cells: gel-filtered human platelets
T1 sequence (P06756 891-1048 limits assumed): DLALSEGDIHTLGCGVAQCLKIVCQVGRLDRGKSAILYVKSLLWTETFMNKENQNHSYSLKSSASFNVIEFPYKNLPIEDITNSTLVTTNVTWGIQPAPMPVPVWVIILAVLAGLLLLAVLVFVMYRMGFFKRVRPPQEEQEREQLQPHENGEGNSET
T1 sequence (P06756 31-889 partner limits assumed): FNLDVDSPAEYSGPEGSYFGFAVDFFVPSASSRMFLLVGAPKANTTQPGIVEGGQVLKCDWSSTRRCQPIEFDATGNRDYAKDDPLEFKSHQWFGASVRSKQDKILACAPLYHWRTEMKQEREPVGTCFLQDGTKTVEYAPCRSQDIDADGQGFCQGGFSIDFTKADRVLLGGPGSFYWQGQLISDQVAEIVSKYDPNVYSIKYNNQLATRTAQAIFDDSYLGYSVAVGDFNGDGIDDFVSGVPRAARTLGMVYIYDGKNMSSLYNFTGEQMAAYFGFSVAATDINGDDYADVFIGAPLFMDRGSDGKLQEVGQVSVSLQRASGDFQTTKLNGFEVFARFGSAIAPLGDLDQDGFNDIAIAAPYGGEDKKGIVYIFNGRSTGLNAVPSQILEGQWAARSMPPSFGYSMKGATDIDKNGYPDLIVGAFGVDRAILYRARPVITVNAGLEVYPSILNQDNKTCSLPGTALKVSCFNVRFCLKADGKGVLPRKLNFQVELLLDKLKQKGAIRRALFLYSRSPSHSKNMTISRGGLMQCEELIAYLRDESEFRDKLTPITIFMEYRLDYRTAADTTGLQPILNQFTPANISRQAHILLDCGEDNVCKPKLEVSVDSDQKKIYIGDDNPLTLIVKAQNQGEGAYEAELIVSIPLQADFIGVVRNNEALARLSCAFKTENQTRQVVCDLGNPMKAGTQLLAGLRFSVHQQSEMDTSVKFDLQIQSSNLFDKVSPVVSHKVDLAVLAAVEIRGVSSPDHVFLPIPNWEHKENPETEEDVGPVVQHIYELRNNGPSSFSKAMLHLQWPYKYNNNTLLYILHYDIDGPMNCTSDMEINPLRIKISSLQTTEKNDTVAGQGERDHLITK
T1 sequence (P05106 27-788 partner): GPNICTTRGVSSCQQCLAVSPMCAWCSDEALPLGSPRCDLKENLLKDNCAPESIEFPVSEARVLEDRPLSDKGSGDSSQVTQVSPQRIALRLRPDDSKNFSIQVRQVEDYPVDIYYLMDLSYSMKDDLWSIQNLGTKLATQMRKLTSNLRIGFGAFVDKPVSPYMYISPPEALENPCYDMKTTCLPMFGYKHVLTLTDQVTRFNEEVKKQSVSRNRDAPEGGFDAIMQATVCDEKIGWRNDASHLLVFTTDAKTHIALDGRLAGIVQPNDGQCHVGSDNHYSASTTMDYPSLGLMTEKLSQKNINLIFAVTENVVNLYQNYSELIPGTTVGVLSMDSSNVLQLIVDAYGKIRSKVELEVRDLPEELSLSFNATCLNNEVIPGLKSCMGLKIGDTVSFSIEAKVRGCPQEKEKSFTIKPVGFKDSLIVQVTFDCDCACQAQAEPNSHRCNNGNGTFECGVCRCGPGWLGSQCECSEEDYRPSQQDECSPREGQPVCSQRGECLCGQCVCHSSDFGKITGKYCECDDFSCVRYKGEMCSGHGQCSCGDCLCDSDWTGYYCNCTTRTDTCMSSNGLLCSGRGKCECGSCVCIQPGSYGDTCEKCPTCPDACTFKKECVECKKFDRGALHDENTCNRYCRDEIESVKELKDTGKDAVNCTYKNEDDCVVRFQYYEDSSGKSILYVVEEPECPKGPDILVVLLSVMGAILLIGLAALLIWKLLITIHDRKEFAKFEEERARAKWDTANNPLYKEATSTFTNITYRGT
Text: Litvinov R I et al. Proc. Natl. Acad. Sci. USA. 99, 7426-31 (2002). Recombinant human OPN, prepared as previously described (Bennett J S et al. J. Biol. Chem. 272, 8137-40 (1997)) or purified human fibrinogen was covalently bound to 0.93 μm carboxylate-modified latex beads. Individual cells, trapped from a suspension of gel filtered human platelets or CHO cells, were manually attached to 5 μm diameter silica pedestals coated with polylysine. An OPN- or fibrinogen-coated bead, trapped by the laser light, was then brought into proximity of an immobilized cell, oscillated at 50 Hz, and then brought into repeated intermittent contact with the cell by micromanipulation. Data collection was initiated at the first contact between the bead and the cell. Rupture forces following repeated contacts were collected for periods of several seconds to one minute. Individual forces measured during each contact-detachment cycle were collected into 10 pN-wide bins. The number of events in each bin was then plotted against the average force for that bin after normalizing for the total number of interaction cycles. Thus, the percentage of events in a particular force range (bin) represents the probability of rupture events at that tension. Optical artifacts observed with or without trapped latex beads produce signals that appeared as forces below 10 pN. Therefore, rupture forces in this range were not considered when the data were analyzed. The polypeptide was added from a DMSO solution such that the final concentration of DMSO was no greater than 0.5%. All controls also had 0.5% DMSO in the buffer.
Platelets express a second integrin with a β3 subunit, αVβ3, which can bind the matrix protein osteopontin when platelets are stimulated by Mn^2+ or ADP. Bennett J S et al. J. Biol. Chem. 272, 8137-8140 (1997). To test the ability of anti-αIIb to discriminate between αIIbβ3 and αVβ3, the rupture force between platelets and osteopontin-coated beads in the presence and absence of anti-αIIb was measured.

αIIbβ3 = target: T2, αIIbβ3 (Homo sapiens, UniProt P08514); assay: FACS analysis of FITC-fibrinogen binding to platelets
T2 construct: trapped from a suspension of gel filtered human platelets or CHO cells; endogenous in cells; host or cells: gel-filtered human platelets
T2 sequence (P08514 891-1039 limits assumed): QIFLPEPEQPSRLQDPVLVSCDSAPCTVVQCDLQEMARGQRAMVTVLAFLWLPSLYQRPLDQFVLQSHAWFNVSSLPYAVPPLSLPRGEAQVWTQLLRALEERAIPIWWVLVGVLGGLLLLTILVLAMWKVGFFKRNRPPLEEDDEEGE
T2 sequence (P08514 32-887 partner limits assumed): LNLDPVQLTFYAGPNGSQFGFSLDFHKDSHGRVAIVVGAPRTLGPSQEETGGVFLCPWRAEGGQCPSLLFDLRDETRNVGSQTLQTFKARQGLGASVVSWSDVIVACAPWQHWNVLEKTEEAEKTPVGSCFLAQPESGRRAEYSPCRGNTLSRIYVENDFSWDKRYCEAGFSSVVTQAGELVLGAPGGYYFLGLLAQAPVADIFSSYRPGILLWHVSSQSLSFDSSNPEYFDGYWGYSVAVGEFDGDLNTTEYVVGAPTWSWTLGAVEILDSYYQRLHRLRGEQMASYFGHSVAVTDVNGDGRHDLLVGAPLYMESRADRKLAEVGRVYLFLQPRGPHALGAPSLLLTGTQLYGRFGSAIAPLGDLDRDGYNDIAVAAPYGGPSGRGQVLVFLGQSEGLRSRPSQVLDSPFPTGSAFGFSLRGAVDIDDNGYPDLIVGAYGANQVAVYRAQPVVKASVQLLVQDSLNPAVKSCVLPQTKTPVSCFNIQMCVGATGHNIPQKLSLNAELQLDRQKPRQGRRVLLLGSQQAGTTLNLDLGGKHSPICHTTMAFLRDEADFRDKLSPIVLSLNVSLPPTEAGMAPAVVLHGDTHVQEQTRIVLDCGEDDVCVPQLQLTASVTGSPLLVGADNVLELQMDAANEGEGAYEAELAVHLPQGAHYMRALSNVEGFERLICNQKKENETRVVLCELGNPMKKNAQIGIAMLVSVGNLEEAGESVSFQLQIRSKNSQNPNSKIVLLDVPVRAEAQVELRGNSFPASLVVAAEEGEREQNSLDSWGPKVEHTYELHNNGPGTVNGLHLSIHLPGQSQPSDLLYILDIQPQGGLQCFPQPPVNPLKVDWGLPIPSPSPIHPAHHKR
T2 sequence (P05106 27-788 partner): as the sequence (P05106 27-788 partner) above
Protocol: Freshly isolated platelets were added to 200 μg/ml FITC-conjugated fibrinogen, then incubated with 20 μM ADP or 2 μM of the anti-αIIb polypeptide in the presence or in the absence of 5 mM EDTA for 3 min at room temperature. After incubation, the platelets were fixed with 0.37% formalin in PBS buffer for 10 min, then washed and examined by FACS analysis as previously reported. See Ulmschneider M B et al. Proteins: Struct. Funct. Bioinformat. 59, 252-265 (2005). The polypeptide was added from a DMSO solution such that the final concentration of DMSO was no greater than 0.5%. All controls also had 0.5% DMSO in the buffer.

αVβ3 [2] = target: T1, αVβ3; assay: Platelet adhesion to immobilized osteopontin
Protocol: The integrin αVβ3 mediates adhesion of platelets to the matrix protein osteopontin, potentially exposed to the circulating blood by rupture of an atherosclerotic plaque. […] The potency of anti-αv in inducing platelet adhesion to osteopontin was approximately 10-fold lower than that of anti-αIIb in inducing platelet aggregation (FIG. 11). Adhesion of platelets in 100 μl aliquots of gel-filtered human platelets to immobilized osteopontin was induced by the indicated concentrations of anti-αV, either alone or in the presence of the calcium chelator 2.5 mM EDTA or the global platelet signal transduction inhibitor 2 μM PGE1. Platelets stimulated by 20 μM ADP served as a positive control. Platelet adhesion was quantitated using a colorimetric assay based on measurement of platelet acid phosphatase activity. The data shown in FIG. 11 are the mean and standard error of measurements made in triplicate. Anti-αV-induced adhesion was prevented by agents that inhibit the interaction of αVβ3's extracellular ligand-binding site with osteopontin, including EDTA or the specific RGD-containing αVβ3 antagonist XJ735, confirming that anti-αV induced platelet adhesion to osteopontin is mediated by αVβ3.
Platelet adhesion to osteopontin was measured as previously described. See Fleming K G J. Mol. Biol. 323, 563-571 (2002). Briefly, 96-well flat bottom microtiter plates (Immulon 2, Dynatech, Chantilly Va.) were coated with 5 μg/ml of recombinant osteopontin dissolved in 50 mM NaHCO3 buffer, pH 8.0, containing 150 mM NaCl. Unoccupied protein binding sites on the wells were blocked with 5 mg/ml bovine serum albumin dissolved in the same buffer. One hundred μl aliquots of a gel-filtered platelet suspension containing ≈2-5×10^6 platelets were added to the protein-coated wells in the absence or presence of anti-αV or ADP. Following an incubation for 30 min at 37° C. without agitation, the plates were washed four times and the number of adherent platelets measured using a colorimetric assay that measure platelet acid phosphatase activity. The polypeptide was added from a DMSO solution such that the final concentration of DMSO was no greater than 0.5%. All controls also had 0.5% DMSO in the buffer.

Row | Molecule | rupture force, platelets and osteopontin-coated beads (αVβ3 [1]; 0.5 μM polypeptide) | FITC-labeled fibrinogen bound by platelets (αIIbβ3; 2.0 μM polypeptide, compared with 20 μM ADP) | induced fibrinogen binding in the presence of EDTA (αIIbβ3; 5 mM EDTA) | peak of rupture force between platelets and osteopontin-coated beads (αVβ3 [1]) [pN] | rupture force peak in the presence of αvβ3 antagonist XJ735 (αVβ3 [1]) | potency in inducing platelet adhesion to osteopontin, lower than that of anti-αIIb in inducing platelet aggregation (αVβ3 [2]) | induced adhesion after pre-incubating the platelets with PGE1 (αVβ3 [2]; 2 μM PGE1) | induced adhesion in the presence of EDTA or αVβ3 antagonist XJ735 (αVβ3 [2]; 2.5 mM EDTA) | platelet adhesion to osteopontin (αVβ3 [2]; absence of pharmacological platelet agonists)
1 | CC[C@H](C)[C@H](NC(=O)[C@H](Cc1ccccc1)NC(=O)[C@H](Cc1ccccc1)NC(=O)[C@@H]1CCCN1C(=O)[C@H](CC(C)C)NC(=O)[C@H](CC(C)C)NC(=O)[C@H](CCSC)NC(=O)[C@@H](NC(=O)[C@H](Cc1ccc(O)cc1)NC(=O)[C@H](C)NC(=O)[C@H](CCCCN)NC(=O)[C@@H](N)CCCCN)C(C)C)C(=O)NCC(=O)N[C@@H](CC(C)C)C(=O)N[C@@H](CC(C)C)C(=O)N[C@@H](CC(C)C)C(=O)NCC(=O)N[C@@H](CC(C)C)C(=O)N[C@H](C(=O)N[C@@H](Cc1ccccc1)C(=O)NCC(=O)NCC(=O)N[C@@H](C)C(=O)N[C@@H](Cc1ccccc1)C(=O)N[C@@H](Cc1c[nH]c2ccccc12)C(=O)NCC(=O)N1CCC[C@H]1C(=O)N[C@@H](C)C(=O)N[C@@H](CCCNC(=N)N)C(=O)N[C@@H](Cc1c[nH]cn1)C(=O)N[C@@H](CC(C)C)C(=O)N[C@@H](CCCCN)C(=O)N[C@@H](CCCCN)C(N)=O)[C@@H](C)CC [anti-αIIb] (H-KKAYVMLLPFFIGLLLGLIFGGAFWGPARHLKK-NH2; N-terminus assumed) | No peak of rupture force was observed | comparable amounts | prevented |  |  |  |  |  | 
2 | AYVFILLSFILGTLLGFLVMFWA [anti-αV] |  |  |  | 40 | not present | approximately 10 fold | only minimally affected | prevented | induced robust platelet adhesion to osteopontin
